In data set [1] the test system is HCT-116. The experiment in a line: Cytotoxicity against human HCT-116 cells assessed as inhibition of cell growth at 20 uM incubated for 48 hrs by SRB assay relative to control. It counts as functional.
Data set [2] has as its system MCF7. The data set can be described thus: Cytotoxicity against human MCF7 cells assessed as inhibition of cell growth at 20 uM incubated for 48 hrs by SRB assay relative to control. It counts as functional. (In general: Sulforhodamine B stains cellular protein and so reports cell mass.)
Data set [3] concerns MCF7. The data set can be described thus: Anticancer activity against human MCF7 cells assessed as effect on cell viability by SRB assay. It counts as functional, cell-based.
Data set [4] in a line: Selectivity index, ratio of IC50 for HEK293 cells to IC50 for human MCF7 cells. It counts as toxicity. The note with it: HEK293 cells versus MCF7 cells, read-out: Ratio IC50.
Data set [5] can be described thus: Cytotoxicity against human HEK293 cells assessed as inhibition of cell growth incubated for 48 hrs by SRB assay. It counts as toxicity, cell-based.
Data set [6] concerns MCF7. The experiment in a line: Cytotoxicity against human MCF7 cells assessed as inhibition of cell growth incubated for 48 hrs by SRB assay. The settings on record: MCF7, 48 h. It counts as functional, cell-based.
Data set [7] has as its system HCT-116. The experiment in a line: Cytotoxicity against human HCT-116 cells assessed as inhibition of cell growth incubated for 48 hrs by SRB assay. It counts as functional, cell-based. The note with it: HCT-116, 48 h.
A short description of data set [8]: Selectivity index, ratio of IC50 for HEK293 cells to IC50 for human HCT-116 cells. It counts as toxicity. The note with it: HEK293 cells versus HCT-116 cells, read-out: Ratio IC50.
The next data set has as its system HT-29. The experiment in a line: Anticancer activity against human HT-29 cells. It counts as functional, cell-based.
The subject of the next data set is DU-145. The data set can be described thus: Anticancer activity against human DU-145 cells. It counts as functional, cell-based.
Data set [9] in a line: Anticancer activity against mouse NIH3T3 cells. It counts as toxicity, cell-based.
Another data set relates to NCI-H226. The data set can be described thus: Anticancer activity against human NCI-H226 cells. It counts as functional, cell-based.
A further data set concerns SNB-19. The data set can be described thus: Anticancer activity against human SNB-19 cells. It counts as functional, cell-based.
Data set [10] deals with MCF7. The data set can be described thus: Anticancer activity against human MCF7 cells. It counts as functional, cell-based.
The next data set concerns Jurkat. The experiment in a line: Anticancer activity against human Jurkat cells. It counts as functional, cell-based.
For a further data set, the system named is Raji. The data set can be described thus: Anticancer activity against human Raji cells. It counts as functional, cell-based.
The nature of data set [11]: Solubility of compound in SIF by UV absorbance based analysis. It counts as physicochemical.
The nature of data set [12]: Solubility of compound in water by UV absorbance based analysis. It counts as physicochemical.
Data set [13] can be described thus: Solubility of compound in SGF by UV absorbance based analysis. It counts as physicochemical.

Molecules are shown by their SMILES. Values after ≈ are worked out from the molar mass of the structure shown. Active and inactive are the calls of the source. The calls are words filed in the database; no cut-off is given here.

A word on the inhibition: it is the drop in the measured response relative to a control, in per cent. As for `C=C(C)[C@@H]1CCC(C)=C[C@H]1c1c(O)cc(CCCCC)c2c1OCN(Cc1ccccc1)C2`, the inhibition at 20 µM in the data set on HCT-116 [1] was determined as 52.3%; in the data set with MCF7 [2], 46.5%.
The corresponding values for `C=C(C)[C@@H]1CCC(C)=C[C@H]1c1c2c(c(CCCCC)c3c1OCN(CCCC)C3)CN(CCCC)CO2` are 0% and 0%.
With `Cc1ccc(Cn2nc(C(=O)N[C@@H]3C(C)(C)[C@@H]4CC[C@@]3(C)C4)cc2-c2ccc(Cl)c(C)c2)cc1`, in the data set with MCF7 [3], the result was inactive.
A word on the IC50: it is the concentration that gives 50% inhibition. For the molecule `C=C(C)[C@@H]1CCC(C)=C[C@H]1c1c(O)cc(CCCCC)c2c1OCN(CCCCCC)C2`, the selectivity ratio in data set [4] came out at 2.4; in data set [8] it was 1.1. For the same molecule, the figures for the inhibition at 20 µM with HCT-116 [1] and in the data set with MCF7 [2] were 70.9% and 83%, respectively. In addition, the IC50 at 48 h in [5] stood at 23500 nM. For the same molecule, the IC50 is 9500 nM in the data set on MCF7 [6] and 19800 nM in the data set with HCT-116 [7].
Consider `C=C(C)[C@@H]1CCC(C)=C[C@H]1c1c(O)cc(CCCCC)c2c1OCN(C1CC1)C2`, for which the results for the inhibition at 20 µM with HCT-116 [1] and in the data set with MCF7 [2] were 51.7% and 75.1%, respectively.
The corresponding values for `C=C(C)[C@@H]1CCC(C)=C[C@H]1c1c(O)cc(CCCCC)c2c1OCN(C1CCCCCC1)C2` are 50.9% and 74.8%.
As to `C=C(C)[C@@H]1CCC(C)=C[C@H]1c1c(O)cc(CCCCC)c2c1OCN(CCC)C2`, the selectivity ratio in data set [4] was found to be 3.5; in data set [8], 2.9. In addition, the inhibition at 20 µM was 62.8% in the data set on HCT-116 [1] and 82.4% in the data set on MCF7 [2]. For the same molecule, the IC50 at 48 h in [5] was 21800 nM. The results for the IC50 with MCF7 [6] and in the data set with HCT-116 [7] were 6100 nM and 7300 nM, respectively.
In the case of `C=C(C)[C@@H]1CCC(C)=C[C@H]1C1=C(O)C(=O)C(CCCCC)=CC1=O`, the IC50 (in the data set on HT-29; in the data set with DU-145; in data set [9]; with NCI-H226; in the data set with SNB-19; with MCF7 [10]) was 449 nM each time. Besides, the IC50 with Jurkat and in the data set with Raji was 449 nM throughout.
Consider `COc1ccc(-c2oc3cc(OC)ccc3c2C(=O)c2ccc(C#N)cc2)cc1`, for which the result in the data set with MCF7 [3] was inactive.
With `Oc1cc2c(cc1O)CN(C(=S)NCCc1ccc(Cl)cc1)CCC2`, in the data set with MCF7 [3], the result was inactive.
As for `C=C(C)[C@@H]1CCC(C)=C[C@H]1c1c(O)cc(CCCCC)c2c1OCN(c1ccccc1F)C2`, the inhibition at 20 µM in the data set on HCT-116 [1] was determined as 1.13%; in the data set on MCF7 [2] it was 16.6%.
Turning to `C=C(C)[C@@H]1CCC(C)=C[C@H]1c1c(O)cc(CCCCC)c2c1OCN(CC)C2`, the figures for the selectivity ratio in [4] and in data set [8] were 1.9 and 0.7, respectively. Further, the inhibition at 20 µM stood at 57.2% with HCT-116 [1] and 84.3% with MCF7 [2]. Besides, the IC50 at 48 h in data set [5] stood at 16800 nM. In addition, the IC50 with MCF7 [6] stood at 8600 nM; in the data set with HCT-116 [7], 22100 nM.
As to `C=C(C)[C@@H]1CCC(C)=C[C@H]1c1c(O)cc(CCCCC)c2c1OCN(CCCN1CCOCC1)C2`, the selectivity ratio came out at 1.2 in data set [4] and 0.8 in data set [8]. In addition, the figures for the inhibition at 20 µM with HCT-116 [1] and with MCF7 [2] were 58.5% and 76.8%, respectively. For the same molecule, the IC50 at 48 h in data set [5] was determined as 10600 nM. For the same molecule, the values for the IC50 in the data set on MCF7 [6] and in the data set on HCT-116 [7] were 8800 nM and 12100 nM, respectively.
`C=C(C)[C@@H]1CCC(C)=C[C@H]1C1=C(OC)C(=O)C(CCCCC)=CC1=O`: the IC50 (in the data set with HT-29; in the data set with DU-145; in data set [9]; with NCI-H226; in the data set with SNB-19; with MCF7 [10]) was 449 nM each time. Besides, the IC50 in the data set on Jurkat and in the data set on Raji was 449 nM each time.
In general, solubility refers to how much of the substance goes into solution per volume. Low values mean little dissolved substance, high ones much dissolved substance. As for `O=C(/C=C/C=C/c1ccc2c(c1)OCO2)N1CCCCC1` [PIPERINE], the solubility in [11] was 60 µg/mL (≈ 210 µM); in data set [12], 40 µg/mL (≈ 140 µM); in data set [13] it was 40 µg/mL (≈ 140 µM).
With `C=C(C)[C@@H]1CCC(C)=C[C@H]1c1c(O)cc(CCCCC)c2c1OCN(C)C2`, the values for the selectivity ratio in data set [4] and in [8] were 1.6 and 1.1, respectively. The inhibition at 20 µM was 56.3% in the data set with HCT-116 [1] and 85.3% with MCF7 [2]. The IC50 at 48 h in data set [5] came to 12400 nM. The IC50 in the data set on MCF7 [6] amounted to 7700 nM; in the data set on HCT-116 [7], 11700 nM.
For the molecule `Cc1cc(C)c2nc(-c3ccccn3)cc(C(=O)Nc3ccc(S(=O)(=O)Nc4onc(C)c4C)cc3)c2c1`, in the data set on MCF7 [3], the result was inactive.
Regarding `C=C(C)[C@@H]1CCC(C)=C[C@H]1c1c(O)cc(CCCCC)c2c1OCN(c1ccc(OC(F)(F)F)cc1)C2`, the inhibition at 20 µM in the data set with HCT-116 [1] and in the data set on MCF7 [2] was 0% each time.
Regarding `O=C(Nc1ccccc1)c1cc([N+](=O)[O-])ccc1Cl`, in the data set on MCF7 [3], the outcome was inactive.
Turning to `C=C(C)[C@@H]1CCC(C)=C[C@H]1c1c(O)cc(CCCCC)c2c1OCN(c1ccccc1)C2`, the inhibition at 20 µM was 4.09% with HCT-116 [1] and 5.3% in the data set on MCF7 [2].
The corresponding values for `C=C(C)[C@@H]1CCC(C)=C[C@H]1c1c(O)cc(CCCCC)c2c1OCN(c1cnc3ccccc3c1)C2` are 18% and 0%.
Regarding `CCCCCC1=CC(=O)C([C@@H]2C=C(C)CC[C@H]2C(C)C)=C(O)C1=O`, the half-inhibitory concentration (IC50) with Jurkat and in the data set on Raji was 154 nM throughout.
Take `C=C(C)[C@@H]1CCC(C)=C[C@H]1C1=C(O)C(=O)C(CCCCC)=C(C)C1=O`: the IC50 (with HT-29; in the data set on DU-145; in [9]; in the data set on NCI-H226; in the data set with SNB-19; with MCF7 [10]) was 449 nM throughout. In addition, the IC50 with Jurkat and in the data set with Raji was 449 nM in each case.
As for `C=C(C)[C@@H]1CCC(C)=C[C@H]1c1c(O)cc(CCCCC)c2c1OCN(c1ccc(C(C)C)cc1)C2`, the inhibition at 20 µM was found to be 0% in the data set on HCT-116 [1] and 9.47% in the data set on MCF7 [2].
